From the METLIN SMRT retention time set (Domingo-Almenara et al. 2019)

Assay: gradient 5% acetonitrile 3 min, to 50% in 2 min, to 85% in 15 min, held 3 min, 100 µL/min
Settings: column: Zorbax Extend-C18 2.1 x 50 mm; eluents: water / acetonitrile, 0.1% formic acid
Procedure, shortened: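 A Zorbax Extend-C18 column (2.1 × 50 mm, 1.8 μm) run at 100 μL/min with water and acetonitrile, both containing 0.1% formic acid, separated mixtures of ~100 pure standards. The HPLC was coupled to a quadrupole time-of-flight mass spectrometer operated in positive and negative ionization mode, with dead and dwell volumes of 40 μL and 900 μL. Each retention time was taken from a computationally picked adduct peak that was then manually inspected.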

| RP-LC retention time | SMILES |
| --- | --- |
| 652 s | CC(C)n1c(CCNC(=O)c2ccccc2F)nc2cccnc21 |
| 675 s | Cc1oc(-c2ccccc2)nc1Cc1noc(-c2ccccc2F)n1 |
| 758 s | Cc1cc(F)ccc1NC(=O)C1CCN(S(=O)(=O)c2cc(C(=O)N(C)C)cs2)CC1 |
| 564 s | CCN1CCN(c2cc(C(=O)O)c3cc(NC(=O)C(C)(C)C)ccc3n2)CC1 |
| 800 s | COc1cccc(C(=O)N2CCC3(CC2)NC(=O)c2cc(Cl)ccc2N3C)c1 |
| 807 s | O=c1c(NC2CCCCCC2)nc2ccncc2n1Cc1ccccc1 |
| 830 s | CCCNC(=O)C1CCN(S(=O)(=O)c2cc(-c3noc(CC)n3)cs2)CC1 |
| 1030 s | CCN1C(=O)C2(CCN(S(=O)(=O)Cc3ccccc3Cl)CC2)c2ccccc21 |
| 952 s | COc1ccc(-c2nc(CNC(=O)c3ccc(-c4noc(C5CC5)n4)cc3)no2)cc1 |
| 970 s | CCOC(=O)c1ccc(N2C(=O)[C@@H]3Cc4ccccc4CN3C2=O)cc1 |
| 1180 s | CCc1nc(-c2csc(S(=O)(=O)N3CCCC(C(=O)Nc4ccc(C)c(Cl)c4)C3)c2)no1 (stereo not drawn) |
| 847 s | Cc1ccc(CNS(=O)(=O)c2cc3c(s2)CCN(C(=O)C2CC2)C3)cc1 |
| 714 s | Cn1nc(C(=O)Nc2ccc3c(c2)C(=O)N2CCC[C@H]2C(=O)N3)c2ccccc21 |
| 966 s | Cn1nc(-c2nc(-c3ccc(F)cc3)no2)c2c1CCN(C(=O)NC(C)(C)C)C2 |
| 577 s | Cc1ccc2c(Nc3ccc4c(c3)OCCO4)c(C(=O)N3CCOCC3)cnc2n1 |
| 686 s | CCOc1ccccc1NC(=O)N1CCC(n2cnc3cccnc32)CC1 |
| 942 s | Cc1cc(C)nc(SCC(=O)Nc2ncc(Cc3ccc(Cl)cc3)s2)n1 |
| 658 s | Cc1nc(N)nc(Nc2ccc(C#N)cc2)c1Br |
| 838 s | COc1ccc(-c2c(C)noc2NC(C)=O)cc1S(=O)(=O)Nc1c(C)cc(C)cc1C |
| 942 s | Cc1cc(C(=O)NC(C)CCc2ccccc2)n(-c2ccccc2)n1 (stereo not drawn) |
| 632 s | CC1CCC(NC(=O)C2CCCN(C(=O)c3cc(-c4ccncc4)n[nH]3)C2)CC1 (stereo not drawn) |
| 1110 s | O=C(Nc1cccc(F)c1)N1CC2CCCN2c2ccccc21 (stereo not drawn) |

| RP-LC retention time | SMILES |
| --- | --- |
| 646 s | Cn1ncc2c3ccccc3n(CCCC(=O)N3CCN(Cc4ccccc4)CC3)c2c1=O |
| 845 s | Cc1ccc(NC(=O)CN2C(=O)CCCc3cc(S(=O)(=O)N4CCCCC4)ccc32)cc1 |
| 941 s | Cc1cccc(NC(=O)c2cn(C)nc2S(=O)(=O)N2CCSCC2)c1 |
| 776 s | O=C(NCCc1csc(-c2ccccc2)n1)C1CCN(S(=O)(=O)c2cccs2)CC1 |
| 676 s | O=C(Nc1cc(F)ccc1F)N1CCN(Cc2nc3cccnc3n2-c2ccccc2)CC1 |
| 1120 s | Cc1ccccc1Oc1nccnc1N1CCC(C(=O)NC(C)CCc2ccccc2)CC1 (stereo not drawn) |
| 1030 s | Cc1ccc(-c2cc(NC(=O)Cc3ccccc3C)on2)s1 |
| 1010 s | COc1ccc(Cl)cc1NC(=O)NCCC1CCN(S(=O)(=O)c2ccccc2)CC1 |
| 749 s | CCOC(=O)Cc1ccc(NC(=O)N2CCc3cn(C)c4cccc(c34)C2)cc1 |
| 1100 s | CCNS(=O)(=O)c1cccnc1Nc1ccc(Cl)c(C)c1 |
| 834 s | Fc1cccc(-c2nc3ncccn3c2NC2CCCCC2)c1 |
| 1180 s | O=c1c2scc(-c3ccc(Br)cc3)c2ncn1Cc1ccc(F)cc1 |
| 647 s | CCOC(=O)C(C)Sc1ccc2nnc(CCNC(=O)c3ccc(OC)cc3)n2n1 (stereo not drawn) |
| 736 s | COc1ccc(-c2nc3cc(C)ccn3c2NC(=O)c2ccc(Cl)c([N+](=O)[O-])c2)cc1 |
| 638 s | NC(=O)C1CCN(C(=O)CCn2ccn3nc(-c4ccccc4)cc3c2=O)CC1 |
| 584 s | CCN(CC)CCn1c(NCc2ccc(C)cc2)nc2ccccc21 |
| 671 s | CCNC(=O)CC1=C2CCCCC2N(C(C)C)C1=O (stereo not drawn) |
| 1430 s | CCc1cccc(NC(=O)c2c(O)c3cccnc3n(-c3ccccc3)c2=O)c1 |
| 1040 s | O=C(Cn1cccc(-c2nc(-c3ccccc3)no2)c1=O)Nc1ccc(Cl)c(C(F)(F)F)c1 |
| 854 s | CCCC(=O)Nc1ccc(OCc2cc(C(=O)NC3CCCC3)no2)cc1 |
| 975 s | Cc1ccc(-c2nnc(-c3nn(C)c4c3CN(S(=O)(=O)c3ccc5c(c3)OCCO5)CC4)o2)cc1 |
| 694 s | O=S(=O)(Nc1ccc(F)c(F)c1)c1ccc2nncn2c1 |

| RP-LC retention time | SMILES |
| --- | --- |
| 824 s | CCc1ccccc1S(=O)(=O)N1CCC(c2cc(N)on2)CC1 |
| 694 s | COc1cc(N2CCC(N3CCN(C)CC3)CC2)ccc1Nc1ncc(Cl)c(Nc2ccccc2S(=O)(=O)C(C)C)n1 |
| 798 s | Cc1onc(-c2cccnc2)c1C(=O)Nc1ccc(Br)cc1F |
| 860 s | COc1ccc(-c2nc(N3CCC(C)CC3)c3ccccc3n2)cc1 |
| 830 s | Cc1ccc(NC(=O)C2CCN(S(=O)(=O)c3cc(C(=O)N4CCCC4)cs3)CC2)cc1 |
| 710 s | Cc1c(-c2noc(C(=O)NCCN3CCCCCC3)n2)oc2ccccc12 |
| 624 s | CCCS(=O)(=O)Nc1cccc(-c2cn3cccc(C)c3n2)c1 |
| 926 s | O=c1ccc(N2CCCN(S(=O)(=O)c3ccc(F)cc3)CC2)nn1-c1ccc(Cl)cc1 |
| 578 s | Cc1ccc(NC(=O)CCNc2cnc3cnccn23)cc1F |
| 779 s | COCCN1CC2(CCN(S(=O)(=O)c3ccc(Cl)cc3C)CC2)C1c1ccccc1 (stereo not drawn) |
| 560 s | Cc1nc(C2CCCN2Cc2ccc(F)cc2F)n[nH]1 (stereo not drawn) |
| 783 s | COc1ccc(-c2c(C)noc2NC(C)=O)cc1S(=O)(=O)Nc1ccccc1F |
| 858 s | Cn1nccc1C(=O)NCc1ccc(-c2nc(-c3cccs3)no2)s1 |
| 816 s | CC(C)C(=O)NCc1csc(C2CCCN(C(=O)CC3CCCCC3)C2)n1 (stereo not drawn) |
| 729 s | COC(=O)c1ncn2c1C(=O)N(Cc1cccc(F)c1)C(C)(C(=O)NCc1ccccc1)C2 (stereo not drawn) |
| 988 s | CCn1cc(-c2nc(C)c(C(=O)NC3CCCCC3)s2)c2cccnc21 |
| 872 s | O=C(NCc1ccc2c(c1)OCO2)c1n[nH]nc1Nc1ccc(F)cc1 |
| 682 s | COc1ccccc1NC(=O)CN1CCC(c2nc(-c3cccs3)no2)CC1 |
| 745 s | Cc1cccc(CNC(=O)C2CCCN(c3nnc(C)c4c(C)n(-c5ccccc5)nc34)C2)c1 (stereo not drawn) |
| 1020 s | COC(=O)C1=C(C)NC(C)=C(C(=O)OCCN2CCN(C(c3ccccc3)c3ccccc3)CC2)C1c1cccc([N+](=O)[O-])c1 (stereo not drawn) |
| 720 s | CN(CCNC(=O)c1c2c(cn(-c3ccccc3)c1=O)C(=O)CC(C)(C)C2)C1CCCCC1 |
| 705 s | CCn1ccc(C(=O)NCc2cccnc2Oc2ccccc2)n1 |

| RP-LC retention time | SMILES |
| --- | --- |
| 932 s | CCc1nnc(-c2ccc3ccn(CC(=O)Nc4cc(C)ccc4OC)c3c2)o1 |
| 964 s | COc1ccc(-c2cc(C(=O)N3CCCC3c3cc(C)on3)no2)cc1 (stereo not drawn) |
| 776 s | O=C(NCc1ccc2c(c1)OCO2)C1CN(c2nc3c(F)cccc3s2)C1 |
| 753 s | CCc1nnc(-c2cc(C)n(CC(=O)Nc3ccc(OC)cc3)c2C)o1 |
| 732 s | CCN1C(=O)COc2cc(-c3noc(C(=O)NCCc4ccc(S(N)(=O)=O)cc4)n3)ccc21 |
| 556 s | CN1C(=O)CCCCC1C(=O)N1CCOCC1 (stereo not drawn) |
| 1010 s | COc1ccc2c(c1)C1CC(C)(NC(=O)C1S(=O)(=O)c1ccc(C(C)C)cc1)O2 (stereo not drawn) |
| 645 s | Cc1cccn2cc(C(=O)NCc3cccc(F)c3)nc12 |
| 634 s | CCn1c(CCNC(=O)c2ccc(C)s2)nc2cccnc21 |
| 690 s | CCCc1noc(-c2cccnc2N2CCCN(Cc3ccccc3)CC2)n1 |
| 723 s | CCOc1ccc(C(=O)Nc2cc(-c3cn4cccnc4n3)ccc2OC)cc1 |
| 592 s | OC1(c2ccccn2)CCOC2(CCN(Cc3cccc(C(F)(F)F)c3)CC2)C1 (stereo not drawn) |
| 764 s | CCn1c(=O)c2c(cc(C)n2C)n(CC(=O)Nc2ccc(F)cc2F)c1=O |
| 1030 s | O=C1CC(c2cccc(Cl)c2)Cc2c1cnn2-c1nc2ccccc2[nH]1 (stereo not drawn) |
| 830 s | COc1ccc(CNC(=O)C2CCN(S(C)(=O)=O)c3cc(C)ccc3O2)cc1 (stereo not drawn) |
| 613 s | CCCNC(=O)N1CCCN(C)c2ccccc21 |
| 684 s | CC(=O)N1CCCc2cc(S(=O)(=O)N3CCC(C(=O)Nc4cccc(C)n4)CC3)ccc21 |
| 892 s | Cc1ccc(-c2nc3ccc(Br)cn3c2Nc2ccccc2C)cc1 |
| 723 s | CC1(C(=O)NCc2cccc(Cl)c2)Oc2cccnc2NC1=O (stereo not drawn) |
| 758 s | COc1cc(C(=O)C(=O)c2ccc(O)c(OC)c2)ccc1O |
| 1030 s | CCc1cccc(NC(=O)c2cn(C)nc2S(=O)(=O)N2CCSCC2)c1 |
| 864 s | O=C(Nc1ccc2c(c1)OCCO2)c1ccc(-c2ccsc2)nc1 |
